Measured values taken from article PMC5053523, “In Vitro Antibacterial Activity of Rhodanine Derivatives against Pathogenic Clinical Isolates” (PLoS ONE, 2016).
Where two headings read alike, the source gives them in different places.

Key:
Format in all cases: cell-based
[1] = tested on: vancomycin resistant enterococci (VRE) E. faecium; experiment: Broth microdilution MIC/MBC, VRE E. faecium; details: for MIC: read-out: MIC
[2] = tested on: Vancomycin Resistant Staphylococcus aureus (VRSA); experiment: Broth microdilution MIC/MBC, VRSA; details: for MBC / MIC: VRSA
[3] = tested on: B. licheniformis; experiment: Broth microdilution MIC/MBC, B. licheniformis; details: Bacillus licheniformis; for MBC: read-out: MBC; for MIC: read-out: MIC
[4] = tested on: Acinetobacter baumannii; experiment: MIC with/without PMBN, Acinetobacter baumannii
Outline: (§1)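 Compounds plus sub-inhibitory colistin or PMBN; MIC against Gram-negatives, with control antibiotics in parallel.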

[5] = tested on: Pseudomonas aeruginosa; experiment: MIC with/without sub-MIC colistin, Pseudomonas aeruginosa
Outline: as §1

[6] = tested on: P. aeruginosa; experiment: Broth microdilution MIC, P. aeruginosa; details: Pseudomonas aeruginosa
[7] = tested on: vancomycin resistant enterococci (VRE) E. faecalis; experiment: Broth microdilution MIC/MBC, VRE E. faecalis; details: for MIC: read-out: MIC
[8] = tested on: Clostridium difficile; experiment: MIC against Clostridium difficile, anaerobic broth dilution; details: Clostridioides difficile
Outline: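 Clinical C. difficile isolates grown anaerobically 48 h at 37 °C, suspended to 0.5 McFarland and diluted 1:300 in pre-reduced supplemented Brain Heart Infusion broth. Compounds serially diluted; plates incubated anaerobically at 37 °C for 48 h. MIC = lowest concentration with no visible growth.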

[9] = tested on: K. pneumoniae; experiment: Broth microdilution MIC, K. pneumoniae
[10] = tested on: Salmonella Typhimurium; experiment: MIC with/without PMBN, Salmonella Typhimurium
Outline: as §1

[11] = tested on: methicillin-resistant Staphylococcus aureus (MRSA); experiment: Broth microdilution MIC/MBC, MRSA
[12] = tested on: Klebsiella pneumoniae; experiment: MIC with/without sub-MIC colistin, Klebsiella pneumoniae
Outline: as §1

[13] = tested on: Pseudomonas aeruginosa; experiment: MIC with/without PMBN, Pseudomonas aeruginosa
Outline: as §1

[14] = E. faecium HM 968 Strain ERV102
[15] = E. faecium NR31914 Strain E0120
[16] = E. faecium Patient #1–1 NR-31903
[17] = NCIB9375, B. licheniformis Gibson 46 (NCIB 9375) NR-2494
[18] = NRS712, B. licheniformis NRS 712 NR-2499
[19] = E. faecalis NR31972 Strain SF 28073

O=C(O)[C@@H](Cc1ccccc1)N1C(=O)/C(=C/c2cccc(Cc3ccccc3)c2)SC1=S [Rh 7]
4 µM: MIC ([8]; C. difficile HM-88) | MIC ([8]; C. difficile Isolate-1 NR-13427) | MIC ([8]; C. difficile Toxigenic Strain P8 NR-32888)
>128 µM: MIC ([9]; K. pneumoniae NR-15417) | MIC ([10]; Salmonella Typhimurium ATCC 700720, PMBN (+) 4 μg/mL, read-out: MIC)
32 µM: MBC [1, 15] | MBC ([2]; VRSA 1, read-out: MBC) | MBC ([2]; VRSA 3b, read-out: MBC) | MBC ([2]; VRSA 11b, read-out: MBC) | MBC ([2]; VRSA 13, read-out: MBC)
8 µM: MIC ([1]; E. faecium E417 HM-965) | MIC [1, 16] | MIC50 ([2]; 15 VRSA strains, read-out: MIC 50) | MBC ([2]; VRSA 2, read-out: MBC) | MIC ([2]; VRSA 2, read-out: MIC) | MBC ([2]; VRSA 3a, read-out: MBC) | MIC ([2]; VRSA 3a, read-out: MIC) | MIC ([2]; VRSA 3b, read-out: MIC) | MIC ([2]; VRSA 4, read-out: MIC) | MBC ([2]; VRSA 5, read-out: MBC) | MIC ([2]; VRSA 5, read-out: MIC) | MIC ([2]; VRSA 6, read-out: MIC) | MIC ([2]; VRSA 7, read-out: MIC) | MIC ([2]; VRSA 8, read-out: MIC) | MIC ([2]; VRSA 10, read-out: MIC) | MIC ([2]; VRSA 11a, read-out: MIC) | MIC ([2]; VRSA 11b, read-out: MIC) | MIC ([2]; VRSA 12, read-out: MIC) | MIC ([2]; VRSA 13, read-out: MIC) | MBC [3, 17] | MIC [3, 17] | MBC [3, 18] | MIC [3, 18] | MIC ([7]; E. faecalis R712 HM-335) | MIC50 ([11]; 11 MRSA strains) | MIC ([11]; MRSA NRS 1) | MBC ([11]; MRSA NRS 19) | MIC ([11]; MRSA NRS 19) | MBC ([11]; MRSA NRS 119) | MIC ([11]; MRSA NRS 119) | MIC ([11]; MRSA NRS 384) | MIC ([11]; MRSA NRS 385) | MIC ([11]; MRSA NRS 386) | MBC ([11]; MRSA NRS 387) | MIC ([11]; MRSA NRS 387)
> 128 µM: MIC ([4]; Acinetobacter baumannii, ATCCBAA747) | MIC ([4]; Acinetobacter baumannii, ATCCBAA19606) | MIC ([5]; Pseudomonas aeruginosa, ATCC921) | MIC ([6]; ATCC9721) | MIC ([6]; ATCC15442) | MIC ([9]; Klebsiella pneumoniae) | MIC ([10]; Salmonella enterica, ATCC 700720 / TYPHIMURIUM) | MIC ([12]; Klebsiella pneumoniae, BAA2146) | MIC ([13]; Pseudomonas aeruginosa, ATCC9721)
16 µM: MIC ([1]; E. faecium E1071 NR-28978) | MIC [1, 14] | MIC [1, 15] | MBC [1, 16] | MIC90 ([2]; 15 VRSA strains, read-out: MIC 90) | MIC ([2]; VRSA 1, read-out: MIC) | MBC ([2]; VRSA 4, read-out: MBC) | MBC ([2]; VRSA 6, read-out: MBC) | MBC ([2]; VRSA 7, read-out: MBC) | MBC ([2]; VRSA 8, read-out: MBC) | MBC ([2]; VRSA 9, read-out: MBC) | MIC ([2]; VRSA 9, read-out: MIC) | MBC ([2]; VRSA 10, read-out: MBC) | MBC ([2]; VRSA 11a, read-out: MBC) | MBC ([2]; VRSA 12, read-out: MBC) | MBC ([7]; E. faecalis ERV103 HM-934) | MIC ([7]; E. faecalis ERV103 HM-934) | MBC [7, 19] | MIC [7, 19] | MBC ([7]; E. faecalis R712 HM-335) | MBC ([7]; E. faecalis S613 HM-334) | MIC ([7]; E. faecalis S613 HM-334) | MBC ([7]; E. faecalis TX0104 HM-201) | MIC ([7]; E. faecalis TX0104 HM-201) | MIC90 ([11]; 11 MRSA strains) | MBC ([11]; MRSA NRS 1) | MBC ([11]; MRSA NRS 37) | MIC ([11]; MRSA NRS 37) | MBC ([11]; MRSA NRS 107) | MIC ([11]; MRSA NRS 107) | MBC ([11]; MRSA NRS 383) | MIC ([11]; MRSA NRS 383) | MBC ([11]; MRSA NRS 385)
> 64 µM: MBC ([1]; E. faecium E1071 NR-28978) | MBC [1, 14] | MBC ([11]; MRSA NRS 386)
2 µM: MIC ([8]; C. difficile HM-746)
64 µM: MBC ([1]; E. faecium E417 HM-965) | MBC ([11]; MRSA NRS 384)
1 µM: MIC ([8]; C. difficile HM-745)
>64 µM: MIC ([4]; Acinetobacter baumannii ATCC BAA747, PMBN (+) 4 μg/mL, read-out: MIC) | MIC ([4]; Acinetobacter baumannii ATCC BAA19606, PMBN (+) 4 μg/mL, read-out: MIC) | MIC ([5]; Pseudomonas aeruginosa ATCC 921, colistin (+) […], read-out: MIC) | MIC ([12]; Klebsiella pneumoniae ATCC BAA 2146, colistin (+) […]) | MIC ([13]; Pseudomonas aeruginosa ATCC 9721, PMBN (+) 4 μg/mL, read-out: MIC)
